Reference: ChEMBL document CHEMBL1201862, “PubChem BioAssay data set” (2004)
Each block holds one compound with its values, some of them ahead of it. The source made the active and inactive calls.

Key:
HEK293 [1] = assay: HEK293T cell viability loss, resazurin readout – resazurin fluorescence, cytotoxicity control for NF-kB activator project, SAR follow-up (AID 493251); format: functional, cell-based; details: Homo sapiens
HEK293 [2] = assay: SAR Analysis of small molecule inhibitors of B-cell specific antigen receptor-induced NF-kB activation in a HEK-293T cell line using a luminescence assay - Set 2. [Related pubchem assays (depositor defined):AID435022, AID435025, AID489021]; format: functional, cell-based; details: Homo sapiens
Jurkat = assay: SAR Analysis of small molecule inhibitors of […] specific antigen receptor-induced NF-kB activation in a Jurkat cell line using a luminescence assay - Set 3. [Related pubchem assays (depositor defined):AID435022, AID435025, AID465]; format: functional, cell-based; details: Homo sapiens
HeLa = assay: toxicity to human HeLa cells – cell-based, 48 h, plate reader, cherry-picks, cytotoxicity control, dose response (AID 504942); format: functional
[3] = target: T1, Acyl-homoserine lactone acylase PvdQ (Pseudomonas aeruginosa (strain LESB58), UniProt Q9I194); assay: PvdQ acylase enzyme activity blockers – biochemical, fluorescence, plate reader and imaging, cherry-picks, dose response (AID 493231)
T1 sequence (Q9I194 whole entry): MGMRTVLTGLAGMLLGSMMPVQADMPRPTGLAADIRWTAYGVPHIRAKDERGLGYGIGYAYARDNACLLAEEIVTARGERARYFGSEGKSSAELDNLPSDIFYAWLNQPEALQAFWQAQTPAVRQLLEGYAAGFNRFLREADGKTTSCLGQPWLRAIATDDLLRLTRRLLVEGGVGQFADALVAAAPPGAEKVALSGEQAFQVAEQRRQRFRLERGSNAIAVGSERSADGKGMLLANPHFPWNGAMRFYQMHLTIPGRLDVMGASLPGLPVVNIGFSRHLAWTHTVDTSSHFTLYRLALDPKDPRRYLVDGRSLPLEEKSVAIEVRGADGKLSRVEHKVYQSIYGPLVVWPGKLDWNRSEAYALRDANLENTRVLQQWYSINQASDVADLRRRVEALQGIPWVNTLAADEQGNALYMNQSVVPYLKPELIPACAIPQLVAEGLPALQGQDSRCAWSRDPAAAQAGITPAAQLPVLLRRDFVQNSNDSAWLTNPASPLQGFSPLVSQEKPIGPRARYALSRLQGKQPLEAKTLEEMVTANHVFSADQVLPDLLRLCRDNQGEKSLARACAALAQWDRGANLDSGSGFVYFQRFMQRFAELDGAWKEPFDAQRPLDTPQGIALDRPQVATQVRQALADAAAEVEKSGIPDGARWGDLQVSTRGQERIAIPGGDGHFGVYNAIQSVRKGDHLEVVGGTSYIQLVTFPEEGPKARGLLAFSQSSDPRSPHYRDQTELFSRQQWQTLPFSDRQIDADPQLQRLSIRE

[4] = target: Cell division cycle 7-related protein kinase (Homo sapiens, UniProt O00311); format: functional;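 also: value obtained from a kinome-wide kinase panel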
Wee1-like protein kinase = Wee1-like protein kinase (Homo sapiens, UniProt P30291); assay: Navigating the Kinome. Panel member name: WEE1; format: functional
[5] = target: T2, Apoptotic protease-activating factor 1 (Homo sapiens, UniProt O14727); assay: SAR analysis of small molecule Inhibitors of Apaf-1 in a Fluorescent assay - set 2.; format: functional; details: read-out: IC50_Mean
T2 sequence (O14727 whole entry): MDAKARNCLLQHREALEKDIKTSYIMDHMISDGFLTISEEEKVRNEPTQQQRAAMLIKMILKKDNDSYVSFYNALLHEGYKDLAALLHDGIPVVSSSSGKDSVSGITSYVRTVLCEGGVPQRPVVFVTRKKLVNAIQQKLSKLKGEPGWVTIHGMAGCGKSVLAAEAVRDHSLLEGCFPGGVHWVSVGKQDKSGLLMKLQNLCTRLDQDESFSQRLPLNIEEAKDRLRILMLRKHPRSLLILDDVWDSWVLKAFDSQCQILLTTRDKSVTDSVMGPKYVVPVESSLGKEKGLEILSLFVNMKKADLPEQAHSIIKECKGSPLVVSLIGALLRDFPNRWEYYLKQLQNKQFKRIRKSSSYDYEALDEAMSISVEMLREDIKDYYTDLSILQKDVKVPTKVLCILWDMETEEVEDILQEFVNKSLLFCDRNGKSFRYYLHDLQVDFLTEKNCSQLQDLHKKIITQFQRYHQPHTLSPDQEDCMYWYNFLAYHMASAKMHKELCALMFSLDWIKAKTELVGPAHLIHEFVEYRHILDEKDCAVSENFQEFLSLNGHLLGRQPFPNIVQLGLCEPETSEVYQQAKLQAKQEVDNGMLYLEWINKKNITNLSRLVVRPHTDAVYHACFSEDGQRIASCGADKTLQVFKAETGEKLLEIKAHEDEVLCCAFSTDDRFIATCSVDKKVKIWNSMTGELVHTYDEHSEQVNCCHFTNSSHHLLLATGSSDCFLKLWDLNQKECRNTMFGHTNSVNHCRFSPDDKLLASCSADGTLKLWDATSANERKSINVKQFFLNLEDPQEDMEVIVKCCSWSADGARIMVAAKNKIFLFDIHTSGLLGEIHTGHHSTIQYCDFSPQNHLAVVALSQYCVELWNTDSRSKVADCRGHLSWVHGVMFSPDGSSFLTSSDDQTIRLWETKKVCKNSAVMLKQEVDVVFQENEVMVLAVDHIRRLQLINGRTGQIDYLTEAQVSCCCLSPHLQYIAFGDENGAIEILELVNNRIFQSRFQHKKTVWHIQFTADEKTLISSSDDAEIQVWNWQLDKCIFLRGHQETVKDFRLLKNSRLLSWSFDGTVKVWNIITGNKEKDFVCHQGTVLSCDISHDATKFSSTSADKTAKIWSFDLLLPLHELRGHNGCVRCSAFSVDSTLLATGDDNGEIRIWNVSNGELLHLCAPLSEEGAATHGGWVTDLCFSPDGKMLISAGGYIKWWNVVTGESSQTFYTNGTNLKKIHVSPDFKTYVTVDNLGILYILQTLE

Cytochrome P450 3A4 = Cytochrome P450 3A4 (Homo sapiens, UniProt P08684);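 also: CYP3A4 tested as one member of a cytochrome P450 panel screen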
[6] = SAR analysis of small molecule inhibitors of Apaf-1 using a LZ-Caspase-9/Caspase-3 Fluorescent Selectivity assay - Set 2.; format: functional; details: read-out: IC50_Mean
[7] = target: T3, DNA dC->dU-editing enzyme APOBEC-3A (Homo sapiens, UniProt P31941); assay: SAR analysis of small molecule inhibitors of APOBEC3A DNA Deaminase via a fluorescence-based single-stranded DNA deaminase assay - Set 2.; format: functional; details: read-out: IC50_Mean
[8] = target: T3, DNA dC->dU-editing enzyme APOBEC-3A; assay: SAR analysis of small molecule inhibitors of APOBEC3A DNA Deaminase via a fluorescence-based single-stranded DNA deaminase assay.; format: functional; details: read-out: IC50_Mean
[9] = target: T4, DNA dC->dU-editing enzyme APOBEC-3G (Homo sapiens, UniProt Q9HC16); format: functional
[10] = target: T3, DNA dC->dU-editing enzyme APOBEC-3A; assay: Dose Response confirmation of small molecule APOBEC3A DNA Deaminase Inhibitors via a fluorescence-based single-stranded DNA deaminase assay. [Related pubchem assays (depositor defined):AID493011, AID493024]; format: functional
[11] = target: T4, DNA dC->dU-editing enzyme APOBEC-3G; assay: inhibition of APOBEC3G ssDNA deamination – biochemical, fluorescence, single-stranded DNA substrate, SAR follow-up (AID 602136); format: functional; details: read-out: IC50_Mean
[12] = target: T4, DNA dC->dU-editing enzyme APOBEC-3G; assay: SAR analysis of small molecule inhibitors of APOBEC3G DNA Deaminase via a fluorescence-based single-stranded DNA deaminase assay - Set 2.; format: functional; details: read-out: IC50_Mean
[13] = target: Latent membrane protein 1 (Human herpesvirus 4 (strain B95-8), UniProt P03230); assay: LMP1 TES1 pathway selectivity over dsRED control – imaging, HEK293T, dual-color eGFP/dsRED, cherry-picks, selectivity assay for LMP1 NF-kB inhibitor project, dose response (AID 588398); format: functional, cell-based
Sequence of Latent membrane protein 1 (P03230 whole entry): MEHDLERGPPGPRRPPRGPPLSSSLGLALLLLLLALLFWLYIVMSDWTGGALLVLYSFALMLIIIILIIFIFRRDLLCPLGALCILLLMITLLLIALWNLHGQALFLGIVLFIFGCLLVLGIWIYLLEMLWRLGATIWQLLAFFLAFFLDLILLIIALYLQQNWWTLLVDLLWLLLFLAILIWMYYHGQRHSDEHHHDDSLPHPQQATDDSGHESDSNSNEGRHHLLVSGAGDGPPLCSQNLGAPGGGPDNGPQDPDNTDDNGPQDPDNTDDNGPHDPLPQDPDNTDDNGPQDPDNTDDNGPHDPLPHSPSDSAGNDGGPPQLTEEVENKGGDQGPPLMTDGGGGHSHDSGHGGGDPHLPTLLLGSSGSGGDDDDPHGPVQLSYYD

T3 sequence (P31941 whole entry): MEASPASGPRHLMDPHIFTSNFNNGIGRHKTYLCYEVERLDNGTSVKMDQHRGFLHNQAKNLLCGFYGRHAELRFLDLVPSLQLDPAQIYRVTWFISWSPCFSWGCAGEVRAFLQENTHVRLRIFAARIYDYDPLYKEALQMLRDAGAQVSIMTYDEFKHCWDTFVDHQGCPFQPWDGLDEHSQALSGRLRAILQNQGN
T4 sequence (Q9HC16 whole entry): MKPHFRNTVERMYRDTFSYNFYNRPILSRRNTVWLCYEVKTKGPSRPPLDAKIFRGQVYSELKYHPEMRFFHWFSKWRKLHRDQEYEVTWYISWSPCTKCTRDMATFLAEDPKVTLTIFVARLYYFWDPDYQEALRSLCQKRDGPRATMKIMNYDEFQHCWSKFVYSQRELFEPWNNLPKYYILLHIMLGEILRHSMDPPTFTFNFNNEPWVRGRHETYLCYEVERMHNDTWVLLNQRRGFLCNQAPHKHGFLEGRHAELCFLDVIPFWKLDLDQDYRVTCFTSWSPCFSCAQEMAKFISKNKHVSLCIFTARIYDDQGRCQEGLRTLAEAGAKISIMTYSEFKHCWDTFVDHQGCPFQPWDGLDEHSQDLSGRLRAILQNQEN
Sequence of Cell division cycle 7-related protein kinase (O00311 whole entry): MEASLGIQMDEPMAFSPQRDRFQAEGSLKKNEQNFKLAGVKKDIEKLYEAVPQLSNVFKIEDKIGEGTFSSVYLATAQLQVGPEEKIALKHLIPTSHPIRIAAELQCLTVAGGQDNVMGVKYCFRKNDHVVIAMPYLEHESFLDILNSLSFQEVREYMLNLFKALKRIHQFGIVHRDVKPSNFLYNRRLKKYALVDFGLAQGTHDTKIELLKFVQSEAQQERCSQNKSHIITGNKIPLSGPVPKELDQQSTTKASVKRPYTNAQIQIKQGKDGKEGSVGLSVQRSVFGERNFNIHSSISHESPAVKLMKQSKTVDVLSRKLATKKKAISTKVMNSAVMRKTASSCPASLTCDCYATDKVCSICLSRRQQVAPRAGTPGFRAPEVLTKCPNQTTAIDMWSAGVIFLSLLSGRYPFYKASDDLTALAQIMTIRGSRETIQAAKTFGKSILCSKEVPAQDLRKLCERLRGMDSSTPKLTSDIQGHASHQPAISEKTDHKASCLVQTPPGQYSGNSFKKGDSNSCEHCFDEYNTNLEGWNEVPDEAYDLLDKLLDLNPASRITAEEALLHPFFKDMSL
Sequence of Wee1-like protein kinase (P30291 whole entry): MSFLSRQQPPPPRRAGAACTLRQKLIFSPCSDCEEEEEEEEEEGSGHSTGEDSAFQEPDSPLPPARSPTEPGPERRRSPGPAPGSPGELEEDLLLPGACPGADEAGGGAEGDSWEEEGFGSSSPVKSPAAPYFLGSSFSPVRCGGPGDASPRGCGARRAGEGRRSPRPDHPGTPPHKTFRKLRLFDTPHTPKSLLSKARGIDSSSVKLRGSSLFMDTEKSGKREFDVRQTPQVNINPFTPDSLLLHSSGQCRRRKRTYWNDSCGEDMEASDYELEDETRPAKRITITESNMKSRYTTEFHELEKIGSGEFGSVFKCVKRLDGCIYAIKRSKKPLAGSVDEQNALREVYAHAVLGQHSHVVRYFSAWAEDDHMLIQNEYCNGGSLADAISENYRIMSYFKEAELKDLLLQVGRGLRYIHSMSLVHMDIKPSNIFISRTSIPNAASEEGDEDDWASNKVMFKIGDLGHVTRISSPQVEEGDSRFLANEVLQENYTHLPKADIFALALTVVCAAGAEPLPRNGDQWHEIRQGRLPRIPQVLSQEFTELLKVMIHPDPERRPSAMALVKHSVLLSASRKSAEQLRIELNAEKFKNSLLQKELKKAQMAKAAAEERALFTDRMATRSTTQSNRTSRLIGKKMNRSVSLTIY
Sequence of Cytochrome P450 3A4 (P08684 whole entry): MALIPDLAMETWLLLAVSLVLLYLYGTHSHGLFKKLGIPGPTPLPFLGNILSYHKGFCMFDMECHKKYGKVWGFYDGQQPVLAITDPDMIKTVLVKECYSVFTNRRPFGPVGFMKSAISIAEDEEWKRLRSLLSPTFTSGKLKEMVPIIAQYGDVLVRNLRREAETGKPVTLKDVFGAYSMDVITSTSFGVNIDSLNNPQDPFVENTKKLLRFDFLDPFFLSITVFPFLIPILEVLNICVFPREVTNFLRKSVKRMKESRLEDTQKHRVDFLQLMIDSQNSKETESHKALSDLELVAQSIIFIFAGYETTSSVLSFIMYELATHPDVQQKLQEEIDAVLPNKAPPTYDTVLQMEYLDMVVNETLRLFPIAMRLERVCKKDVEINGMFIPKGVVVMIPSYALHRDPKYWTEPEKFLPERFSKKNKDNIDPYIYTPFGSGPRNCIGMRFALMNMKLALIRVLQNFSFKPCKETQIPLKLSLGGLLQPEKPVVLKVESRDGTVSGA

Structure (SMILES): CCOc1ccc(-c2nc(CSCC(=O)N3CCCC3)c(C)o2)cc1
- IC50 (HEK293 [1]): > 80 µM (inactive)
- IC50 (HEK293 [2]): 46.6 µM (inactive)
- IC50 (Jurkat): > 80 µM (inactive)

Structure (SMILES): N#CC(c1ccccc1)c1cccc(Cl)n1 (configuration not stated)
- AC50 (HeLa): > 380 µM (inactive)
- AC50 [3]: 1.1 µM (active)

Structure (SMILES): N#Cc1cccc(Nc2ncnc(Nc3ccc(F)cc3)n2)c1
- Ki [4]: 0.1 µM (active)
- Ki (Wee1-like protein kinase): > 3.16 µM (inactive)

Structure (SMILES): CCC(=O)Nc1cccc(-c2nnc(SCC(=O)NCc3ccco3)n2C)c1
- IC50 [7]: 4.37 µM (active)
- IC50 [8]: 1.93 µM (active)
- IC50 [9]: 5.36 µM (active)
- IC50 [10]: 1.07 µM (active)
- IC50 [11]: 1.5 µM (active)
- IC50 [12]: 0.695 µM (active)

Other lines, results leading:

- IC50 [5]: 34 µM (active)
- AC50 (Cytochrome P450 3A4): 7.94 µM (inconclusive)
- IC50 [6]: 22.7 µM (active)
Structure (SMILES): O=C1C(=O)N(Cc2ccc(Cl)c(Cl)c2)c2ccccc21

- AC50 [13]: 48.3 µM (active)
Structure (SMILES): O=C1CN(C(=O)c2ccc(F)c(S(=O)(=O)N3CCOCC3)c2)c2ccccc2N1
